Measurements from US10894784B2, “Heteroarylbenzimidazole compounds” (BAYER PHARMA AKTIENGESELLSCHAFT, priority 2015, dated 2021).
Like-named read-outs stand apart in the source and are kept apart here.

Biological target: TBK1 (Homo sapiens (Human), UniProt Q9UHD2)
Experiment: TBK1 low ATP kinase assay (in vitro assay 1)
Type: biochemical
[1] = in vitro assay 1, read-out: TBK1 low ATP kinase assay IC50

Sequence of TBK1 (Q9UHD2 whole entry): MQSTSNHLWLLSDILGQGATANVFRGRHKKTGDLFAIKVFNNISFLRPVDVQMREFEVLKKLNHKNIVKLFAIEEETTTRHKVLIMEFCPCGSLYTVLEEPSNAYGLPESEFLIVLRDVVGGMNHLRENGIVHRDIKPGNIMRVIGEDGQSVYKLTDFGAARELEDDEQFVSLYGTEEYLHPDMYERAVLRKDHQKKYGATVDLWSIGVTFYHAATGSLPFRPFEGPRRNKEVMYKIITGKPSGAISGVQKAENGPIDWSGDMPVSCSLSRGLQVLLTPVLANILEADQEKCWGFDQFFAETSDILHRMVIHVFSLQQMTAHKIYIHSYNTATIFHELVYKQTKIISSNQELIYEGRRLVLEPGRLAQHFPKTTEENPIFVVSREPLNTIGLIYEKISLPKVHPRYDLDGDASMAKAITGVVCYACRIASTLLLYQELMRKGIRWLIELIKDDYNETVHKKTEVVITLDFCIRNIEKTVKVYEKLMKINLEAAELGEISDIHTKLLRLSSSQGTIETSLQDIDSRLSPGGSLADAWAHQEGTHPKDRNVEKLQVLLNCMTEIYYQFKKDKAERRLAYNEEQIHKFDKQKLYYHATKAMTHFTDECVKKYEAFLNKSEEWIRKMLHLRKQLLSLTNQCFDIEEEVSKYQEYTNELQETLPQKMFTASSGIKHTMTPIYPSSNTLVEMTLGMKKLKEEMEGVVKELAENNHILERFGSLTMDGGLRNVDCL

| IC50 [1] [nM] | IC50 (TBK1 low ATP kinase assay IC50, in vitro assay 1) [nM] | SMILES |
| --- | --- | --- |
| 8.38 | – | COc1cncnc1-c1ccc2nc(Nc3cc(C(C)N4CCN(C(=O)C5CCC5)CC4)ccn3)[nH]c2c1 (single isomer, unassigned) [Example 35.03.04.A, cyclobutyl{4-[(1R or 1S)-1-(2-{[6-(5-methoxypyrimidin-4-yl)-1H-benzimidazol-2-yl]amino}pyridin-4-yl)ethyl]piperazin-1-yl}methanone] |
| 11.5 | – | COc1cncnc1-c1ccc2nc(Nc3cc(C(C)N4CCN(C(=O)CC5CC5)CC4)ccn3)[nH]c2c1 (racemic) [Example 35.02.02, (rac)-2-cyclopropyl-1-{4-[1-(2-{[6-(5-methoxypyrimidin-4-yl)-1H-benzimidazol-2-yl]amino}pyridin-4-yl)ethyl]piperazin-1-yl}ethanone] |
| 1.79 | – | CC(c1ccnc(Nc2nc3ccc(-c4cc(OCC(C)(F)F)ncn4)cc3[nH]2)c1)N1CCN(C(=O)C2CC2)CC1 (single isomer, unassigned) [Example 165.03, cyclopropyl(4-{(1R or 1S)-1-[2-({6-[6-(2,2-difluoropropoxy)pyrimidin-4-yl]-1H-benzimidazol-2-yl}amino)pyridin-4-yl]ethyl}piperazin-1-yl)methanone] |
| 8.07 | – | COc1c(NC2CCC2)ncnc1-c1ccc2nc(Nc3cc(C(C)N4CCN(C(=O)C5CC5)CC4)ccn3)[nH]c2c1 (single isomer, unassigned) [Example 114.03, (4-{(1R or 1S)-1-[2-({6-[6-(cyclobutylamino)-5-methoxypyrimidin-4-yl]-1H-benzimidazol-2-yl}amino)pyridin-4-yl]ethyl}piperazin-1-yl)(cyclopropyl)methanone] |

Continued, compound first:

| SMILES | IC50 [1] [nM] | IC50 (TBK1 low ATP kinase assay IC50, in vitro assay 1) [nM] |
| --- | --- | --- |
| COc1ccncc1-c1ccc2nc(Nc3cc(CN4CCN(C(=O)C5CC5)CC4)ccn3)[nH]c2c1 [Example 14.03, cyclopropyl{4-[(2-{[6-(4-methoxypyridin-3-yl)-1H-benzimidazol-2-yl]amino}pyridin-4-yl)methyl]piperazin-1-yl}methanone] | 550 | – |
| CC(C)(C)OC(=O)N1CCN(Cc2ccnc(Nc3nc4ccc(-c5cc(N6CCCCC6)ncn5)cc4[nH]3)c2)CC1 [Example 145.01, tert-butyl 4-{[2-({6-[6-(piperidin-1-yl)pyrimidin-4-yl]-1H-benzimidazol-2-yl}amino)pyridin-4-yl]methyl}piperazine-1-carboxylate] | 13 | – |
| O=C(CC(F)(F)F)N1CCN(Cc2ccnc(Nc3nc4ccc(-c5cnc(Cl)cn5)cc4[nH]3)c2)CC1 [Example 140.02, 1-{4-[(2-{[6-(5-chloropyrazin-2-yl)-1H-benzimidazol-2-yl]amino}pyridin-4-yl)methyl]piperazin-1-yl}-3,3,3-trifluoropropan-1-one] | 540 | – |
| Cc1cc(-c2ccc3nc(Nc4cc(C(C)N5CCN(C(=O)CC(F)(F)F)CC5)ccn4)[nH]c3c2)ncn1 (single isomer, unassigned) [Example 30.03.01.B, 3,3,3-trifluoro-1-{4-[(1S or 1R)-1-(2-{[6-(6-methylpyrimidin-4-yl)-1H-benzimidazol-2-yl]amino}pyridin-4-yl)ethyl]piperazin-1-yl}propan-1-one] | – | 2.15 |
| CSc1cc(-c2ccc3nc(Nc4cc(CN5CCN(C(=O)C6CC6)CC5)ccn4)[nH]c3c2)ncn1 [Example 95.02, cyclopropyl(4-{[2-({6-[6-(methylsulfanyl)pyrimidin-4-yl]-1H-benzimidazol-2-yl}amino)pyridin-4-yl]methyl}piperazin-1-yl)methanone] | 9.5 | – |
| CC(C)Nc1cc(-c2ccc3nc(Nc4cc(CN5CCN(C(=O)OC(C)(C)C)CC5)ccn4)[nH]c3c2)ncn1 [Example 154.01, tert-butyl 4-{[2-({6-[6-(propan-2-ylamino)pyrimidin-4-yl]-1H-benzimidazol-2-yl}amino)pyridin-4-yl]methyl}piperazine-1-carboxylate] | 4.2 | – |
